{
  "source": "paper PMC11864979",
  "about": "“First-in-class ultralong-target-residence-time p38α inhibitors as a mitosis-targeted therapy for colorectal cancer” (Nature Cancer, 2025)",
  "assay_in_all_cases": "selectivity profiling in a panel of 340 wild-type kinases (Reaction Biology Europe)",
  "type_in_all_cases": "binding",
  "key": {"[1]": {"biological_target": "T1, 340 wild-type kinases (Homo sapiens, UniProt O96017)", "T1 construct": "purchased Reaction Biology Europe", "T1 sequence (O96017 whole entry)": "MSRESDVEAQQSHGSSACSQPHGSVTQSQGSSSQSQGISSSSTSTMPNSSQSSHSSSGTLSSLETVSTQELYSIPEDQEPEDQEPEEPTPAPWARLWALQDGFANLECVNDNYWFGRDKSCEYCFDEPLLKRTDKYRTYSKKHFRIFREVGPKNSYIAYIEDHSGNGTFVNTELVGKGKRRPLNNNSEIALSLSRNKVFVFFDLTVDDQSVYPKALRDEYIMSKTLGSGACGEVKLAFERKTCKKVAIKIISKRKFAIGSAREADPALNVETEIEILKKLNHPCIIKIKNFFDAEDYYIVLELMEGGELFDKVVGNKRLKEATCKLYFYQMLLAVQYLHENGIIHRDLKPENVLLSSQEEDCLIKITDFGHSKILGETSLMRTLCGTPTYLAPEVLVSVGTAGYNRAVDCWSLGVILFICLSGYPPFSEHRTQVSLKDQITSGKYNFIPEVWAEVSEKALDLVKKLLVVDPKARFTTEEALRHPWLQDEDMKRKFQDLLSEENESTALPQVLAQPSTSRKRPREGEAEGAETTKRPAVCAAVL"}, "[2]": {"biological_target": "T2, 340 wild-type kinases (Homo sapiens, UniProt P29323)", "T2 construct": "purchased Reaction Biology Europe", "T2 sequence (P29323 19-1055)": "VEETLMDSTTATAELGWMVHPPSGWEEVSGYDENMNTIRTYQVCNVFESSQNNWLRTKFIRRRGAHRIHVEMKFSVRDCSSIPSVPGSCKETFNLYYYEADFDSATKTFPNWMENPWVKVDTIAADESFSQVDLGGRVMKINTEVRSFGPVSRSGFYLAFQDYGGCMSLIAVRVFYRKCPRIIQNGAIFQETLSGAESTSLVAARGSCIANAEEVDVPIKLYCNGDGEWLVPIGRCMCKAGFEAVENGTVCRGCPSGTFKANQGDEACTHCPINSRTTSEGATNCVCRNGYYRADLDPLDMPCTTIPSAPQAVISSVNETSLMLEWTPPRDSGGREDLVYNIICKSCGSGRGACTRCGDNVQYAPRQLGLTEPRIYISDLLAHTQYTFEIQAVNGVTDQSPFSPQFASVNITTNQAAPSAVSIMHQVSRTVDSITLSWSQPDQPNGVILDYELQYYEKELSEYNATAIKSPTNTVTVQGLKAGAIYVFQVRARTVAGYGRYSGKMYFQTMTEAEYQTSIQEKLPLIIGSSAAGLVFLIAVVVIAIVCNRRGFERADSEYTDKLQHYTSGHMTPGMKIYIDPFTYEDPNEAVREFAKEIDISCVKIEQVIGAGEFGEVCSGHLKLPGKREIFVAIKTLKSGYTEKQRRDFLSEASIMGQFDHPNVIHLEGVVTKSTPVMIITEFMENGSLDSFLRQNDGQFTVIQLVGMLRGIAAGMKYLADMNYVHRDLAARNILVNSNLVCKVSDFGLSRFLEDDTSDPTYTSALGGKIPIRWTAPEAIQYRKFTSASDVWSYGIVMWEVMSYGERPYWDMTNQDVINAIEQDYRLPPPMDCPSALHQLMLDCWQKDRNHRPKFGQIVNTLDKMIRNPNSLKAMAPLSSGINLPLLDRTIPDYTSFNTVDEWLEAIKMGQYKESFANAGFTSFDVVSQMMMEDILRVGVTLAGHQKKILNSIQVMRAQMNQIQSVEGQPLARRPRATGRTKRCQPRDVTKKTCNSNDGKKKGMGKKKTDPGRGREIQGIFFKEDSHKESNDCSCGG"}, "[3]": {"biological_target": "T3, 340 wild-type kinases (Homo sapiens, UniProt P51955)", "T3 construct": "purchased Reaction Biology Europe", "T3 sequence (P51955 1-445)": "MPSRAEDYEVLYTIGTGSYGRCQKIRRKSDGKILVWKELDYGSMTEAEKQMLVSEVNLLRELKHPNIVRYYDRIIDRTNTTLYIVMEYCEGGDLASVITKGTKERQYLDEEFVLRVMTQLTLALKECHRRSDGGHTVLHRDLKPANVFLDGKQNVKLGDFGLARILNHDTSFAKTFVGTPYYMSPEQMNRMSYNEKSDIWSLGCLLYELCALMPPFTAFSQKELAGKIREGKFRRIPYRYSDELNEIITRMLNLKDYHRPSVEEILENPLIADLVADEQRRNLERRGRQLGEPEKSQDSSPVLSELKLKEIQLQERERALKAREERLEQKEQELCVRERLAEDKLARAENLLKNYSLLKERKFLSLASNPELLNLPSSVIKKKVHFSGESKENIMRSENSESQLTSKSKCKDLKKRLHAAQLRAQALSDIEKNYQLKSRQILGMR"}, "[4]": {"biological_target": "T4, 340 wild-type kinases (Homo sapiens, UniProt Q05655)", "T4 construct": "purchased Reaction Biology Europe", "T4 sequence (Q05655 whole entry)": "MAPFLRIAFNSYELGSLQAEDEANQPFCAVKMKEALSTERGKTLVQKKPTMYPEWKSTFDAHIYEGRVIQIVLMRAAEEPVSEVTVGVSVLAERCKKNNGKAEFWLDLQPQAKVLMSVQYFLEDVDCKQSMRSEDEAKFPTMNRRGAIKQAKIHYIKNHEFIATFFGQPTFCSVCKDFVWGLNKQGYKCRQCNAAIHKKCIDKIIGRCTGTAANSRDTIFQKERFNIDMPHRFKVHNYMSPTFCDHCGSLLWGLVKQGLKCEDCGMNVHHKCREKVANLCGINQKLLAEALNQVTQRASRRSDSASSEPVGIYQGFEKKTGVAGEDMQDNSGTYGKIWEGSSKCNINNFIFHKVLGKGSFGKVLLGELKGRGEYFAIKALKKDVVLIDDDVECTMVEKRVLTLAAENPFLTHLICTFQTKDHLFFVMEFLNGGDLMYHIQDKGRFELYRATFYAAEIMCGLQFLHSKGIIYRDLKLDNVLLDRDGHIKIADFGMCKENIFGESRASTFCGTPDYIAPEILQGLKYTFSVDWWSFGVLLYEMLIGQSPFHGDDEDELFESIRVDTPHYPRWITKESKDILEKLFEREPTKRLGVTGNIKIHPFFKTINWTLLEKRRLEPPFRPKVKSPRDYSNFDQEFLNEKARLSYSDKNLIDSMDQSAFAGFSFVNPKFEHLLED"}, "[5]": {"biological_target": "T5, 340 wild-type kinases (Homo sapiens, UniProt O00238)", "T5 construct": "purchased Reaction Biology Europe", "T5 sequence (O00238 14-502)": "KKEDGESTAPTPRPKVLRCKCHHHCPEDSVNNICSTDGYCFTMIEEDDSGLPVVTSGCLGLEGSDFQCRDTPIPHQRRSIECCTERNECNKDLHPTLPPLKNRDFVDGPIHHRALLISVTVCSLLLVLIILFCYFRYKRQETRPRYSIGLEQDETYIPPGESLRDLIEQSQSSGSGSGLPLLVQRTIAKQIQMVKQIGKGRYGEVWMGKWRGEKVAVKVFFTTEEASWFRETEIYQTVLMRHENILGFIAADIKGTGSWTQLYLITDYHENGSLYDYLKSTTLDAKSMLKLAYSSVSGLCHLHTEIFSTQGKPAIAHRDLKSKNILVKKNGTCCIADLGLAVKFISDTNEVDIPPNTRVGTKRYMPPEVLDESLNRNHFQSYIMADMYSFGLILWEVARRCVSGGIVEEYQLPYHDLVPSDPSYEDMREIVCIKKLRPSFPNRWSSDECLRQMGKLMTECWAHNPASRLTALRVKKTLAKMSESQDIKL"}, "[6]": {"biological_target": "T6, 340 wild-type kinases (Homo sapiens, UniProt P07947)", "T6 construct": "purchased Reaction Biology Europe", "T6 sequence (P07947 whole entry)": "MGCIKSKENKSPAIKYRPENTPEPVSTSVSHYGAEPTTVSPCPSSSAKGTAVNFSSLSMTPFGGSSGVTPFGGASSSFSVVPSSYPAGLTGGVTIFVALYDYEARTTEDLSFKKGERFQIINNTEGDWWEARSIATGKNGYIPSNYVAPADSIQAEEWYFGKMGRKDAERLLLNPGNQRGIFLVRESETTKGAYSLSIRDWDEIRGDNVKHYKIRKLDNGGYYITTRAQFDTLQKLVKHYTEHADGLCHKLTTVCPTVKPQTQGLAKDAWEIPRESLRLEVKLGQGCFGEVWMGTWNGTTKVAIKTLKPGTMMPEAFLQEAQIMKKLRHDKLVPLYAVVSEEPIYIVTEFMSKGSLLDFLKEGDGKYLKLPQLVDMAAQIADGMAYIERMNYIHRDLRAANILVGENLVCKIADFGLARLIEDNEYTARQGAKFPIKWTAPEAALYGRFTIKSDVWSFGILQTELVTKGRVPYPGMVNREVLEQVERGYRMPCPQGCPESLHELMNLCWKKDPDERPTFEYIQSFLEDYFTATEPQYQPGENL"}, "[7]": {"biological_target": "T7, 340 wild-type kinases (Homo sapiens, UniProt Q13557)", "T7 construct": "purchased Reaction Biology Europe", "T7 sequence (Q13557 whole entry)": "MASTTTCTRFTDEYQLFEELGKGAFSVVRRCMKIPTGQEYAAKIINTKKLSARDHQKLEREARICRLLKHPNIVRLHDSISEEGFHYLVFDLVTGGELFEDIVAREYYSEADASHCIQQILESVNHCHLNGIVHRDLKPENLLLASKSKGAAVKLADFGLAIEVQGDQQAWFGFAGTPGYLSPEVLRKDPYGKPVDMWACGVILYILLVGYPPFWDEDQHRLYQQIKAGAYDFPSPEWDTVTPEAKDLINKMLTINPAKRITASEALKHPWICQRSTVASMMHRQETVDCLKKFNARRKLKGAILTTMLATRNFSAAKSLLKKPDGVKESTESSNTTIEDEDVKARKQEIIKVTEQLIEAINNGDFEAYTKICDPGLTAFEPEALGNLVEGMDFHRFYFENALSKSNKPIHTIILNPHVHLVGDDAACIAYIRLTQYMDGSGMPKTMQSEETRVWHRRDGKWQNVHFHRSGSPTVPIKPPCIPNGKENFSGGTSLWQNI"}, "[8]": {"biological_target": "T8, 340 wild-type kinases (Homo sapiens, UniProt P35916)", "T8 construct": "purchased Reaction Biology Europe", "T8 sequence (P35916 25-1363)": "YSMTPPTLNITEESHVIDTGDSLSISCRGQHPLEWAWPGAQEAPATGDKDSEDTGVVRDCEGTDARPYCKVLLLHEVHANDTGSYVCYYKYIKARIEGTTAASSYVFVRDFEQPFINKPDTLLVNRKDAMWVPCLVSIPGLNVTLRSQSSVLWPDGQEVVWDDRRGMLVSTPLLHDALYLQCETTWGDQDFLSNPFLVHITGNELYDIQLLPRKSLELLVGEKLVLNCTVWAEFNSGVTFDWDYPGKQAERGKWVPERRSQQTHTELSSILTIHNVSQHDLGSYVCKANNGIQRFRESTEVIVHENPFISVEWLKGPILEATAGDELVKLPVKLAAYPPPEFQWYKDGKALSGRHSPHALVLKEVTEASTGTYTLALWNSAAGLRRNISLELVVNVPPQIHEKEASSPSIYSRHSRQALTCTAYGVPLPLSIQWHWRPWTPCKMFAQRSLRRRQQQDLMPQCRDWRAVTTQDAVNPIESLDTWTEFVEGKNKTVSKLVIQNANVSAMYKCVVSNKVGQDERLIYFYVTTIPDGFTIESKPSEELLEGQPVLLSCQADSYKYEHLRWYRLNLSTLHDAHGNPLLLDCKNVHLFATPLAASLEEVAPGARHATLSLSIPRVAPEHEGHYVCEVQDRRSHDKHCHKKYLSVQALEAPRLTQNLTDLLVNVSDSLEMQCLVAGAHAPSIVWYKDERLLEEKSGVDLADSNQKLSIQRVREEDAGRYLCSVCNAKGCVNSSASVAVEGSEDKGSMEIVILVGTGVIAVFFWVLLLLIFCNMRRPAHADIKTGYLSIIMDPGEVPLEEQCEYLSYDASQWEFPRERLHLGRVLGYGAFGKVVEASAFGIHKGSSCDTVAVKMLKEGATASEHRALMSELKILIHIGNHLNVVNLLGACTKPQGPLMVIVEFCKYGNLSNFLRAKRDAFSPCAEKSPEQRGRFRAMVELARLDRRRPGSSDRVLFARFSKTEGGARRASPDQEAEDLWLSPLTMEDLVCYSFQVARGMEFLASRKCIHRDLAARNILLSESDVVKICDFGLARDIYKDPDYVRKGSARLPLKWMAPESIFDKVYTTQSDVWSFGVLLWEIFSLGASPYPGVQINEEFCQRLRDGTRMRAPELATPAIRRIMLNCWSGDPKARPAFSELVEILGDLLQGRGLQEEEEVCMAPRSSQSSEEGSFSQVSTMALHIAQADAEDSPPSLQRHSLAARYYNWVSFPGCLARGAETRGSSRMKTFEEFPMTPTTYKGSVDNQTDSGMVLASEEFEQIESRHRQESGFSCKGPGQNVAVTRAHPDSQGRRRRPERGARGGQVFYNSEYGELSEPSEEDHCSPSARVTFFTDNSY"}},
  "note": "Read-outs that look alike come from different tables or passages of the source.",
  "data": [
    {"compound": "CNC(=O)c1ccc2c(c1)C(=O)c1ccc(Nc3ccc(F)c(NC(=O)C4CC4)c3)cc1CC2", "note": "[Compound 2015]", "values": [
      {"measurement": "remaining activity at 0.2 µM", "setting": "[1]; 0.2 µM 2015, read-out: CHK2 residual activity", "result": 102, "unit": "%"},
      {"measurement": "remaining activity at 1 µM", "setting": "[1]; 1 µM 2015, read-out: CHK2 residual activity", "result": 94.9, "unit": "%"},
      {"measurement": "remaining activity at 0.2 µM", "setting": "[1]; CHK2, 0.2 µM, read-out: residual activity", "result": 102, "unit": "%"},
      {"measurement": "remaining activity at 1 µM", "setting": "[1]; CHK2, 1 µM, read-out: residual activity", "result": 94.9, "unit": "%"},
      {"measurement": "remaining activity at 0.2 µM", "setting": "[2]; 0.2 µM 2015, read-out: EPHB2 residual activity", "result": 97.4, "unit": "%"},
      {"measurement": "remaining activity at 1 µM", "setting": "[2]; 1 µM 2015, read-out: EPHB2 residual activity", "result": 98.5, "unit": "%"},
      {"measurement": "remaining activity at 0.2 µM", "setting": "[2]; EPHB2, 0.2 µM, read-out: residual activity", "result": 97.4, "unit": "%"},
      {"measurement": "remaining activity at 1 µM", "setting": "[2]; EPHB2, 1 µM, read-out: residual activity", "result": 98.5, "unit": "%"},
      {"measurement": "remaining activity at 0.2 µM", "setting": "[3]; 0.2 µM 2015, read-out: NEK2 residual activity", "result": 104, "unit": "%"},
      {"measurement": "remaining activity at 1 µM", "setting": "[3]; 1 µM 2015, read-out: NEK2 residual activity", "result": 95, "unit": "%"},
      {"measurement": "remaining activity at 0.2 µM", "setting": "[3]; NEK2, 0.2 µM, read-out: residual activity", "result": 104, "unit": "%"},
      {"measurement": "remaining activity at 1 µM", "setting": "[3]; NEK2, 1 µM, read-out: residual activity", "result": 95, "unit": "%"},
      {"measurement": "remaining activity at 0.2 µM", "setting": "[4]; 0.2 µM 2015, read-out: PKCdelta residual activity", "result": 95.6, "unit": "%"},
      {"measurement": "remaining activity at 1 µM", "setting": "[4]; 1 µM 2015, read-out: PKCdelta residual activity", "result": 97, "unit": "%"},
      {"measurement": "remaining activity at 0.2 µM", "setting": "[4]; PKCdelta, 0.2 µM, read-out: residual activity", "result": 95.6, "unit": "%"},
      {"measurement": "remaining activity at 1 µM", "setting": "[4]; PKCdelta, 1 µM, read-out: residual activity", "result": 97, "unit": "%"},
      {"measurement": "remaining activity at 0.2 µM", "setting": "[5]; 0.2 µM 2015, read-out: BMPR1B residual activity", "result": 105, "unit": "%"},
      {"measurement": "remaining activity at 1 µM", "setting": "[5]; 1 µM 2015, read-out: BMPR1B residual activity", "result": 103, "unit": "%"},
      {"measurement": "remaining activity at 0.2 µM", "setting": "[5]; BMPR1B, 0.2 µM, read-out: residual activity", "result": 105, "unit": "%"},
      {"measurement": "remaining activity at 1 µM", "setting": "[5]; BMPR1B, 1 µM, read-out: residual activity", "result": 103, "unit": "%"},
      {"measurement": "remaining activity at 0.2 µM", "setting": "[6]; 0.2 µM 2015, read-out: YES residual activity", "result": 102, "unit": "%"},
      {"measurement": "remaining activity at 1 µM", "setting": "[6]; 1 µM 2015, read-out: YES residual activity", "result": 105, "unit": "%"},
      {"measurement": "remaining activity at 0.2 µM", "setting": "[6]; YES, 0.2 µM, read-out: residual activity", "result": 102, "unit": "%"},
      {"measurement": "remaining activity at 1 µM", "setting": "[6]; YES, 1 µM, read-out: residual activity", "result": 105, "unit": "%"},
      {"measurement": "remaining activity at 0.2 µM", "setting": "[7]; 0.2 µM 2015, read-out: CAMK2D residual activity", "result": 98.1, "unit": "%"},
      {"measurement": "remaining activity at 1 µM", "setting": "[7]; 1 µM 2015, read-out: CAMK2D residual activity", "result": 95.7, "unit": "%"},
      {"measurement": "remaining activity at 0.2 µM", "setting": "[7]; CAMK2D, 0.2 µM, read-out: residual activity", "result": 98.1, "unit": "%"},
      {"measurement": "remaining activity at 1 µM", "setting": "[7]; CAMK2D, 1 µM, read-out: residual activity", "result": 95.7, "unit": "%"},
      {"measurement": "remaining activity at 0.2 µM", "setting": "[8]; 0.2 µM 2015, read-out: VEGFR3 residual activity", "result": 109, "unit": "%"},
      {"measurement": "remaining activity at 1 µM", "setting": "[8]; 1 µM 2015, read-out: VEGFR3 residual activity", "result": 94.2, "unit": "%"},
      {"measurement": "remaining activity at 0.2 µM", "setting": "[8]; VEGFR3, 0.2 µM, read-out: residual activity", "result": 109, "unit": "%"},
      {"measurement": "remaining activity at 1 µM", "setting": "[8]; VEGFR3, 1 µM, read-out: residual activity", "result": 94.2, "unit": "%"}
    ]}
  ]
}
